According to patent US20240228489A1, “POSITIVE ALLOSTERIC MODULATORS OF THE MUSCARINIC ACETYLCHOLINE RECEPTOR M1” (Vanderbilt University, priority 2021, published 2024):

Tests used:
human mAChR M1 [1] = target: T1, human mAChR M1 (Homo sapiens, UniProt P11229); assay: mAChR M1 cell-based functional assay (calcium mobilization), agonist mode: compound alone, Emax relative to acetylcholine maximum; details: for Agonist Activity Human M1 EC50 / EC50: human mAChR M1
T1 sequence (P11229 1-460): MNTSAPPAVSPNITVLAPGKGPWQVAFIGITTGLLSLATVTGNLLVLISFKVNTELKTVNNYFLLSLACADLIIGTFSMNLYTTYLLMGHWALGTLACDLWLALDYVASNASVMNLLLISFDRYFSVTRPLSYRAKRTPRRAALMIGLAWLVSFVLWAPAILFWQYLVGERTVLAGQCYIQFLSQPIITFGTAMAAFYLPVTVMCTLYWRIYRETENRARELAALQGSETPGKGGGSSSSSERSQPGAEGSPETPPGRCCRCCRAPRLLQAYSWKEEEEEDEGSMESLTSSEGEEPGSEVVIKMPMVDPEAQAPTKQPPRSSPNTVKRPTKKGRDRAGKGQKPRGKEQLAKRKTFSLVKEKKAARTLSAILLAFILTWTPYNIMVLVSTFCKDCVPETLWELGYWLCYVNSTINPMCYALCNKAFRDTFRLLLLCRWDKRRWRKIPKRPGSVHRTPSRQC
In short: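 Agonist activity is the concentration-dependent rise in intracellular calcium (Fluo-4, 1 Hz read) after compound addition, measured before any acetylcholine was added, in stable hM1 CHO-K1 cells. Curves were 11-point, 1:3 dilutions fitted by four-parameter logistic. Emax is given as a fraction of maximal acetylcholine response.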

human mAChR M1 [2] = target: T1, human mAChR M1; assay: mAChR M1 cell-based functional assay (calcium mobilization), PAM mode: increase in the EC20 acetylcholine response
In short: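 PAM readout is the concentration-dependent rise in the EC20 acetylcholine calcium signal, fitted to a four-parameter logistic (EC50, Emax). Compounds were preincubated from 4 s before ACh at 144 s (EC20) and 230 s (EC80). hM1-expressing CHO-K1 cells loaded with Fluo-4, FDSS ratio read.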

[3] = relative to the maximum for acetylcholine

SMILES | Agonist Activity Human M1 EC50 (human mAChR M1 [1]) | Emax (human mAChR M1 [1]; [3]) [%] | EC50 (human mAChR M1 [2]) [nM] | Emax (human mAChR M1 [2]) [%] | Agonist Activity Emax (human mAChR M1 [1]; [3]) [%] | PAM Activity Emax (human mAChR M1 [2]) [%] | EC50 (human mAChR M1 [1]) [nM]
[2H]C1([2H])c2ncccc2C(=O)N1Cc1ccc(-c2ccc(OC)c3nn(C([2H])([2H])[2H])cc23)cc1F [Compound 55, 6-(2-fluoro-4-(7-methoxy-2-(methyl-d3)-2H-indazol-4-yl)benzyl)-6,7-dihydro-5H-pyrrolo[3,4-b]pyridin-5-one-7,7-d2] | Inactive | 7 | 275 | 88 | – | – | –
[2H]C1([2H])c2ncccc2C(=O)N1Cc1ccc(-c2ccc(C)c3nn(C([2H])([2H])[2H])cc23)cc1F [Compound 56, 6-(2-fluoro-4-(7-methyl-2-(methyl-d3)-2H-indazol-4-yl)benzyl)-6,7-dihydro-5H-pyrrolo[3,4-b]pyridin-5-one-7,7-d2] | Inactive | 5 | 317 | 87 | – | – | –
[2H]C1([2H])c2ncccc2C(=O)N1Cc1ccc(-c2ccc(OC)c3nn(C([2H])([2H])[2H])cc23)cc1C [Compound 57, 6-(4-(7-methoxy-2-(methyl-d3)-2H-indazol-4-yl)-2-methylbenzyl)-6,7-dihydro-5H-pyrrolo[3,4-b]pyridin-5-one-7,7-d2] | Inactive | 4 | 288 | 87 | – | – | –
[2H]C1([2H])c2ncccc2C(=O)N1Cc1ccc(-c2ccc(C)c3nn(C([2H])([2H])[2H])cc23)cc1C [Compound 58, 6-(2-methyl-4-(7-methyl-2-(methyl-d3)-2H-indazol-4-yl)benzyl)-6,7-dihydro-5H-pyrrolo[3,4-b]pyridin-5-one-7,7-d2] | Inactive | 4 | 614 | 83 | – | – | –
[2H]C1([2H])c2ncccc2C(=O)N1Cc1c(F)cc(-c2cc(F)cc3nn(C)cc23)cc1F [Compound 59, 6-(2,6-difluoro-4-(6-fluoro-2-methyl-2H-indazol-4-yl)benzyl)-6,7-dihydro-5H-pyrrolo[3,4-b]pyridin-5-one-7,7-d2] | Inactive | 2 | 222 | 59 | – | – | –
[2H]C1([2H])c2ncccc2C(=O)N1Cc1c(F)cc(-c2cccc3c2cnn3C(F)F)cc1F [Compound 60, 6-(4-(1-(difluoromethyl)-1H-indazol-4-yl)-2,6-difluorobenzyl)-6,7-dihydro-5H-pyrrolo[3,4-b]pyridin-5-one-7,7-d2] | Inactive | – | 693 | – | 4 | 34 | –
[2H]C1([2H])c2ncc(Br)cc2C(=O)N1Cc1c(F)cc(-c2cccc3nn(C)cc23)cc1F [Compound 61, 3-Bromo-6-(2,6-difluoro-4-(2-methyl-2H-indazol-4-yl)benzyl)-6,7-dihydro-5H-pyrrolo[3,4-b]pyridin-5-one-7,7-d2] | Inactive | 8 | 1360 | 68 | – | – | –
[2H]C1([2H])c2ncc(O)cc2C(=O)N1Cc1c(F)cc(-c2cccc3nn(C)cc23)cc1F [Compound 62, 6-(2,6-Difluoro-4-(2-methyl-2H-indazol-4-yl)benzyl)-3-hydroxy-6,7-dihydro-5H-pyrrolo[3,4-b]pyridin-5-one-7,7-d2] | – | 57 | 108 | 67 | – | – | 4340
[2H]C([2H])([2H])Oc1cnc2c(c1)C(=O)N(Cc1c(F)cc(-c3cccc4nn(C)cc34)cc1F)C2([2H])[2H] [Compound 63, 6-(2,6-Difluoro-4-(2-methyl-2H-indazol-4-yl)benzyl)-3-(methoxy-d3)-6,7-dihydro-5H-pyrrolo[3,4-b]pyridin-5-one-7,7-d2] | Inactive | 3 | 125 | 89 | – | – | –
[2H]C1([2H])c2ncccc2C(=O)N1Cc1c(F)cc(-c2cccc3c2cnn3C(C)C)cc1F [Compound 64, 6-(2,6-difluoro-4-(1-isopropyl-1H-indazol-4-yl)benzyl)-6,7-dihydro-5H-pyrrolo[3,4-b]pyridin-5-one-7,7-d2] | Inactive | 2 | 1840 | 79 | – | – | –
[2H]C1([2H])c2ncccc2C(=O)N1Cc1c(F)cc(-c2cccc3c2cnn3CC)cc1F [Compound 65, 6-(4-(1-ethyl-1H-indazol-4-yl)-2,6-difluorobenzyl)-6,7-dihydro-5H-pyrrolo[3,4-b]pyridin-5-one-7,7-d2] | – | 2 | 1300 | 73 | – | – | > 10000
[2H]C1([2H])c2ncccc2C(=O)N1Cc1c(F)cc(-c2cccc3c2cnn3C2COC2)cc1F [Compound 66, 6-(2,6-difluoro-4-(1-(oxetan-3-yl)-1H-indazol-4-yl)benzyl)-6,7-dihydro-5H-pyrrolo[3,4-b]pyridin-5-one-7,7-d2] | Inactive | 2 | 2170 | 74 | – | – | –
[2H]C1([2H])c2ncccc2C(=O)N1Cc1c(F)cc(-c2cccc3c2cnn3C([2H])([2H])[2H])cc1F [Compound 67, 6-(2,6-difluoro-4-(1-(methyl-d3)-1H-indazol-4-yl)benzyl)-6,7-dihydro-5H-pyrrolo[3,4-b]pyridin-5-one-7,7-d2] | Inactive | 2 | 823 | 71 | – | – | –
[2H]C1([2H])c2ncccc2C(=O)N1Cc1c(F)cc(-c2ccc(F)c3c2cnn3C([2H])([2H])[2H])cc1F [Compound 68, 6-(2,6-difluoro-4-(7-fluoro-1-(methyl-d3)-1H-indazol-4-yl)benzyl)-6,7-dihydro-5H-pyrrolo[3,4-b]pyridin-5-one-7,7-d2] | Inactive | 2 | > 10000 | 64 | – | – | –
[2H]C1([2H])c2ncccc2C(=O)N1Cc1c(F)cc(-c2ccc(OC)c3c2cnn3C([2H])([2H])[2H])cc1F [Compound 69, 6-(2,6-difluoro-4-(7-methoxy-1-(methyl-d3)-1H-indazol-4-yl)benzyl)-6,7-dihydro-5H-pyrrolo[3,4-b]pyridin-5-one-7,7-d2] | Inactive | 2 | 2190 | 68 | – | – | –
[2H]C1([2H])c2ncccc2C(=O)N1Cc1c(F)cc(-c2ccc(C)c3c2cnn3C([2H])([2H])[2H])cc1F [Compound 70, 6-(2,6-difluoro-4-(7-methyl-1-(methyl-d3)-1H-indazol-4-yl)benzyl)-6,7-dihydro-5H-pyrrolo[3,4-b]pyridin-5-one-7,7-d2] | Inactive | 2 | 1220 | 65 | – | – | –
[2H]C1([2H])c2ncccc2C(=O)N1Cc1ccc(-c2cc(F)cc3nn(C)cc23)cc1F [Compound 71, 6-(2-fluoro-4-(6-fluoro-2-methyl-2H-indazol-4-yl)benzyl)-6,7-dihydro-5H-pyrrolo[3,4-b]pyridin-5-one-7,7-d2] | Inactive | 1 | 698 | 75 | – | – | –
[2H]C1([2H])c2ncccc2C(=O)N1Cc1ccc(-c2cc(F)cc3nn(C)cc23)cc1 [Compound 72, 6-(4-(6-fluoro-2-methyl-2H-indazol-4-yl)benzyl)-6,7-dihydro-5H-pyrrolo[3,4-b]pyridin-5-one-7,7-d2] | Inactive | 4 | 472 | 75 | – | – | –
[2H]C1([2H])c2ncccc2C(=O)N1Cc1c(F)cc(-c2ccc(Cl)c3nn(C([2H])([2H])[2H])cc23)cc1F [Compound 73, 6-(4-(7-chloro-2-(methyl-d3)-2H-indazol-4-yl)-2,6-difluorobenzyl)-6,7-dihydro-5H-pyrrolo[3,4-b]pyridin-5-one-7,7-d2] | Inactive | 1 | 170 | 77 | – | – | –
[2H]C1([2H])c2ncccc2C(=O)N1Cc1c(F)cc(-c2ccc(C(F)(F)F)c3nn(C([2H])([2H])[2H])cc23)cc1F [Compound 74, 6-(2,6-difluoro-4-(2-(methyl-d3)-7-(trifluoromethyl)-2H-indazol-4-yl)benzyl)-6,7-dihydro-5H-pyrrolo[3,4-b]pyridin-5-one-7,7-d2] | Inactive | 1 | 592 | 81 | – | – | –
[2H]C1([2H])c2ncccc2C(=O)N1Cc1c(F)cc(-c2cc(Cl)cc3nn(C)cc23)cc1F [Compound 75, 6-(4-(6-chloro-2-methyl-2H-indazol-4-yl)-2,6-difluorobenzyl)-6,7-dihydro-5H-pyrrolo[3,4-b]pyridin-5-one-7,7-d2] | Inactive | 1 | 626 | 55 | – | – | –
[2H]C1([2H])c2ncccc2C(=O)N1Cc1c(F)cc(-c2cc(OC)c3nn(C)cc3c2)cc1F [Compound 76, 6-(2,6-difluoro-4-(7-methoxy-2-methyl-2H-indazol-5-yl)benzyl)-6,7-dihydro-5H-pyrrolo[3,4-b]pyridin-5-one-7,7-d2] | – | 29 | 58 | 78 | – | – | 3740
